Data reported in patent publication US10828305B2 (SHANGHAI PHARMACEUTICALS HOLDING CO., LTD., priority 2016, dated 2020).

Legend:
[1] = molecular target: ErbB2 kinase (Homo sapiens, UniProt P04626); experiment: Enzymatic experiment on ErbB2 (HTRF kinEASE-TK); assay type: biochemical; settings: ATP 4 μM; read-out: Kinase IC50 (nM) in vitro ErbB2
Method in brief: (§1)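 HTRF kinEASE-TK with biotinylated TK substrate in HEPES pH 7.0 buffer containing MnCl2, MgCl2 and DTT; ErbB2 at 0.06 ng/μl with 4 μM ATP, EGFR at 0.06 units/μl with 1.65 μM ATP, 30 min at room temperature after 5 min enzyme/substrate–compound preincubation. Ten-point 3-fold dilutions; Eu antibody/SA-XL665 detection, 665/620 ratio.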

[2] = tested on: BT-474; experiment: Proliferation inhibition assay in vitro, BT-474 (CellTiter-Glo); assay type: cell-based; settings: Homo sapiens, 72 hours, read-out: IC50(nM) cell BT-474
Method in brief: (§2)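 Cells were seeded at 8.8×10^4 cells/mL for BT-474 or 6.6×10^4 cells/mL for N87 and grown overnight. Compound was added at 9 concentrations in duplicate for 72 h at 37 °C, 5% CO2. Viability was measured by CellTiter-Glo.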

[3] = molecular target: EGFR kinase (Homo sapiens, UniProt P00533); experiment: Enzymatic experiment on EGFR (HTRF kinEASE-TK); assay type: biochemical; settings: ATP 1.65 μM; read-out: Kinase IC50 (nM) in vitro EGFR
Method in brief: as §1

[4] = tested on: N87; experiment: Proliferation inhibition assay in vitro, N87 (CellTiter-Glo); assay type: cell-based; settings: Homo sapiens; 72 hours; read-out: IC50(nM) cell N87
Method in brief: as §2

Chain of ErbB2 kinase (P04626 23-1255): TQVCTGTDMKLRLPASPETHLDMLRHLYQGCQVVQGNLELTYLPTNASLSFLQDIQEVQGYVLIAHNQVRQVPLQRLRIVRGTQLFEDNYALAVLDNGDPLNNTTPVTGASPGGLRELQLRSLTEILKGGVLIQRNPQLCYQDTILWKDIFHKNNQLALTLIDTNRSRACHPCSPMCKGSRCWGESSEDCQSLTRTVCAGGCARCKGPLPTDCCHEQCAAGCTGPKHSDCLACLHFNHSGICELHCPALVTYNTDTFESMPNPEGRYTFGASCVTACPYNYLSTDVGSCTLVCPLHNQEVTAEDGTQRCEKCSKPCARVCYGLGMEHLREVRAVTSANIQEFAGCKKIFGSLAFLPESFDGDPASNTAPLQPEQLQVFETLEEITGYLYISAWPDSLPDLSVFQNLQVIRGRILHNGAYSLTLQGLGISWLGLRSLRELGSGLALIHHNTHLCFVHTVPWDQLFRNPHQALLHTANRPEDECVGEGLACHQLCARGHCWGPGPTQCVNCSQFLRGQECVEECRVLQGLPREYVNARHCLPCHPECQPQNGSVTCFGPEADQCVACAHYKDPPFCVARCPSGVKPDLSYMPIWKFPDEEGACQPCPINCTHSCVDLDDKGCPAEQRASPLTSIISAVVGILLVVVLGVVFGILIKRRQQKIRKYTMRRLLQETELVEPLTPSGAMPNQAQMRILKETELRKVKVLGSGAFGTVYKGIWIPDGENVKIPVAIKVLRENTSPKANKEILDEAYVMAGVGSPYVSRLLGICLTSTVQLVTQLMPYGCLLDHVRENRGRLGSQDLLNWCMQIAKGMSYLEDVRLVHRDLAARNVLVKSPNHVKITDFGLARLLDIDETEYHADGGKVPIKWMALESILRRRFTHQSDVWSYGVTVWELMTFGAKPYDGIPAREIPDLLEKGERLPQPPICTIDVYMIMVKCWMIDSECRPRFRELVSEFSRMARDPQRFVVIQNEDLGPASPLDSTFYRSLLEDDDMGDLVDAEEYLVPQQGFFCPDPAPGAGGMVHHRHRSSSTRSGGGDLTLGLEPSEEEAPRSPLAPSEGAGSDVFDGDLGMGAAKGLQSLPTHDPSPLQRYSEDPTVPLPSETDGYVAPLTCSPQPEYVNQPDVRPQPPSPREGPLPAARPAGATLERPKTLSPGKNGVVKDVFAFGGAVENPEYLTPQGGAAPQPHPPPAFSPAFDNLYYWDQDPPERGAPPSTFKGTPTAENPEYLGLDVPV
Chain of EGFR kinase (P00533 25-1210): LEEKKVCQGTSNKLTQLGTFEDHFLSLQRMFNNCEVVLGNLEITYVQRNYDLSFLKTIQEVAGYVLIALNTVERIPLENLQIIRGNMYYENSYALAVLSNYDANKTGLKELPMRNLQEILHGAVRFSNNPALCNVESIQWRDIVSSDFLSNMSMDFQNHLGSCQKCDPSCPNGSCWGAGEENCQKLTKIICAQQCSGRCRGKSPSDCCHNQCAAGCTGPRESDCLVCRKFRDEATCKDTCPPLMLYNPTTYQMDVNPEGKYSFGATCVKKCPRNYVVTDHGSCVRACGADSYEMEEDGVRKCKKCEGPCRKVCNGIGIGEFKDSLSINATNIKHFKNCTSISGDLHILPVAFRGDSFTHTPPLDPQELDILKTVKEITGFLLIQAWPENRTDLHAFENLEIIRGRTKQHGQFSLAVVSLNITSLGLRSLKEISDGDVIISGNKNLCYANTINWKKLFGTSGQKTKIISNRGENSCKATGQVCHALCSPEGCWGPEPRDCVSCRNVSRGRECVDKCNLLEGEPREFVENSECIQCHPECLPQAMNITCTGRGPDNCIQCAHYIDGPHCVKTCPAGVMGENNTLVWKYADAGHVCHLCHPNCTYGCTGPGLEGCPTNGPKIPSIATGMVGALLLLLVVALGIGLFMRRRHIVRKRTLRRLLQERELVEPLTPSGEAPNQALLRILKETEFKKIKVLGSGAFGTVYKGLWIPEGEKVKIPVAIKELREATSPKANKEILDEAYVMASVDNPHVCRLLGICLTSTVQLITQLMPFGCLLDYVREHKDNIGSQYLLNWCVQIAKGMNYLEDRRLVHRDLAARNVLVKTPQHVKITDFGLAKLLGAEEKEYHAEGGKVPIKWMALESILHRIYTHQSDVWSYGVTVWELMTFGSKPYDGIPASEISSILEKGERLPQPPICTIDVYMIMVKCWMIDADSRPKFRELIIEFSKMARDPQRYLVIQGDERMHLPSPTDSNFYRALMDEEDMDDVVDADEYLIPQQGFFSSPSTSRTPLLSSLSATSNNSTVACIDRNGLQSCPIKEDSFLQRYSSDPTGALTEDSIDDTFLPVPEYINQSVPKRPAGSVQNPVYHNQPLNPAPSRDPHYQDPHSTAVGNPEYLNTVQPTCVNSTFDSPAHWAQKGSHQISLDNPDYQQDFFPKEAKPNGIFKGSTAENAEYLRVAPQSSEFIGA

Work on `Cc1cc(Nc2ncnc3ccc(NC(=O)N4CCN(C)CC4)cc23)ccc1Oc1cc2nncn2cn1` [Embodiment 10, N-(4-((4-([1,2,4]triazolo[4,3-c]pyrimidin-7-yloxy)-3-methylphenyl)amino)quinazolin-6-yl)-4-methylpiperazine-1-carboxamide] yielded an IC50 [1] of 12.6 nM, an IC50 [2] of 92.3 nM and an IC50 [3] of 143 nM. It also gave an IC50 [4] of 200 nM.

`Cc1cc(Nc2ncnc3ccc(-c4cccc(F)c4)cc23)ccc1Oc1cc2nncn2cn1` [Embodiment 77, N-(4-([1,2,4]triazolo[4,3-c]pyrimidin-7-yloxy)-3-methylphenyl)-6-(3-fluorophenyl)-4-aminoquinazoline] was tested, and the IC50 [1] was 5.03 nM, the IC50 [2] was 254 nM and the IC50 [3] was 23.6 nM. For the same compound, the IC50 [4] was 509 nM.

For `Cc1cc(Nc2ncnc3ccc(-c4ccc(CN5CCN(C)CC5)o4)cc23)ccc1Oc1cc2nncn2cn1` [Embodiment 61], the IC50 [1] was 6 nM, the IC50 [2] was 48.9 nM and the IC50 [3] was 44.7 nM. The IC50 [4] was 35.4 nM.

`Cc1cc(Nc2ncnc3ccc(-c4ccc(CN5CCN(S(C)(=O)=O)CC5)o4)cc23)ccc1Oc1cc2nncn2cn1` [Embodiment 22, N-(4-([1,2,4]triazolo[4,3-c]pyrimidin-7-yloxy)-3-methylphenyl)-6-(5-((4-(methanesulfonyl)piperazin-1-yl)methyl)furan-2-yl)quinazolin-4-amine] was tested, and the IC50 [1] was 4.1 nM, the IC50 [2] was 40.7 nM and the IC50 [3] was 18 nM. The IC50 [4] was 35.6 nM.

`Cc1cc(Nc2ncnc3ccc(NC4=NC5(CO4)CC(O)C5)cc23)ccc1Oc1cc2nncn2cn1` (stereo not shown) [Embodiment 27, 6-((4-((4-([1,2,4]triazolo[4,3-c]pyrimidin-7-yloxy)-3-methylphenyl)amino)quinazolin-6-yl)amino)-7-oxa-5-azaspiro[3,4]oct-5-en-2-ol] gave an IC50 [1] of 1.92 nM, an IC50 [2] of 112 nM and an IC50 [3] of 8.1 nM. For the same compound, the IC50 [4] was 543 nM.

`C=C(F)C(=O)N1CCC(Oc2cc3c(Nc4ccc(Oc5cc6nncn6cn5)c(C)c4)ncnc3cc2OC)CC1` [Embodiment 42, 1-(4-((4-((4-([1,2,4]triazolo[4,3-c]pyrimidin-7-yloxy)-3-methylphenyl)amino)-7-methoxyquinazolin-6-yl)oxy)piperidin-1-yl)-2-fluoroprop-2-en-1-one] gave an IC50 [1] of 5.2 nM, an IC50 [2] of 36.7 nM and an IC50 [3] of 8.3 nM. It also gave an IC50 [4] of 39.2 nM.

In the case of `Cc1cc(Nc2ncnc3ccc(NC4=NCC(C)O4)cc23)ccc1Oc1cc2nncn2cn1` (stereo not shown) [Embodiment 24, N^4-(4-([1,2,4]triazolo[4,3-c]pyrimidin-7-yloxy)-3-methylphenyl)-N^6-(5-methyl-4,5-dihydrooxazol-2-yl)quinazoline-4,6-diamine], the IC50 [1] was 4.1 nM, the IC50 [2] was 128 nM and the IC50 [3] was 127 nM. For the same compound, the IC50 [4] was 177 nM.

Compound `Cc1cc(Nc2ncnc3ccc(NC(=O)CCl)cc23)ccc1Oc1cc2nncn2cn1` [Embodiment 82, N-(4-((4-([1,2,4]triazolo[4,3-c]pyrimidin-7-yloxy)-3-methylphenyl)amino)quinazolin-6-yl)-2-chloroacetamide] has an IC50 [1] of 1.1 nM, an IC50 [2] of 7.1 nM and an IC50 [3] of 2.2 nM. For the same compound, the IC50 [4] was 5 nM.

`CC(=O)C(=O)Nc1ccc2ncnc(Nc3ccc(Oc4cc5nncn5cn4)c(C)c3)c2c1` [Embodiment 128, N-(4-((4-([1,2,4]triazolo[4,3-c]pyrimidin-7-yloxy)-3-methylphenyl)amino)quinazolin-6-yl)-2-oxopropionamide] gave an IC50 [1] of 14.8 nM, an IC50 [2] of 484 nM and an IC50 [3] of 28.7 nM. The IC50 [4] was 868 nM.

In the case of `Cc1cc(Nc2ncnc3ccc(NC4=NCC(C)(C)O4)cc23)ccc1Oc1cc2nncn2cn1` [Embodiment 90, N^4-(4-([1,2,4]triazolo[4,3-c]pyrimidin-7-yloxy)-3-methylphenyl)-N^6-(5,5-dimethyl-4,5-dihydrooxazol-2-yl)quinazolin-4,6-diamine], the IC50 [1] was 11.1 nM, the IC50 [2] was 185 nM and the IC50 [3] was 494 nM. For the same compound, the IC50 [4] was 271 nM.

In the case of `Cc1cc(Nc2ncnc3ccc(-c4ccc(CN5CCS(=O)(=O)CC5)o4)cc23)ccc1Oc1cc2nncn2cn1` [Embodiment 63], the IC50 [1] was 1.8 nM, the IC50 [2] was 12.7 nM and the IC50 [3] was 29.5 nM. The IC50 [4] was 13 nM.

`Cc1cc(Nc2ncnc3ccc(NC4=NC5(CO4)CC(F)(F)C5)cc23)ccc1Oc1cc2nncn2cn1` [Embodiment 48, N^4-(4-([1,2,4]triazolo[4,3-c]pyrimidin-7-yloxy)-3-methylphenyl)-N^6-(2,2-difluoro-7-oxa-5-azaspiro[3.4]oct-5-en-6-yl)quinazoline-4,6-diamine] showed an IC50 [1] of 1.3 nM, an IC50 [2] of 42.2 nM and an IC50 [3] of 9.4 nM. The IC50 [4] was 64 nM.

`C=CC(=O)N1CCC(Oc2cc3c(Nc4ccc(Oc5cc6nncn6cn5)c(C)c4)ncnc3cc2OC)CC1` [Embodiment 41, 1-(4-((4-((4-([1,2,4]triazolo[4,3-c]pyrimidin-7-yloxy)-3-methylphenyl)amino)-7-methoxyquinazolin-6-yl)oxy)piperidin-1-yl)pro-2-en-1-one] showed an IC50 [1] of 4.3 nM, an IC50 [2] of 6.9 nM and an IC50 [3] of 1.3 nM. It also gave an IC50 [4] of 11.7 nM.

`C=C(F)C(=O)Nc1cccc(-c2ccc3ncnc(Nc4ccc(Oc5cc6nncn6cn5)c(C)c4)c3c2)c1` [Embodiment 71, N-(3-(4-((4-([1,2,4]triazolo[4,3-c]pyrimidin-7-yloxy)-3-methylphenyl)amino)quinazolin-6-yl)phenyl)-2-fluoroacrylamide] gave an IC50 [1] of 3.5 nM, an IC50 [2] of 42.7 nM and an IC50 [3] of 20.7 nM. For the same compound, the IC50 [4] was 66.4 nM.

In the case of `Cc1cc(Nc2ncnc3ccc(-c4cc[nH]c4)cc23)ccc1Oc1cc2nncn2cn1` [Embodiment 80, N-(4-([1,2,4]triazolo[4,3-c]pyrimidin-7-yloxy)-3-methylphenyl)-6-(1H-pyrrol-3-yl)quinazolin-4-amine], the IC50 [1] was 1 nM, the IC50 [2] was 120 nM and the IC50 [3] was 12.6 nM. It also gave an IC50 [4] of 36 nM.

`Cc1cc(Nc2ncnc3ccc(Br)cc23)ccc1Oc1cc2nncn2cn1` [Embodiment 5, N-(4-([1,2,4]triazolo[4,3-c]pyrimidin-7-yloxy)-3-methylphenyl)-6-bromoquinazolin-4-amine] gave an IC50 [1] of 12.9 nM, an IC50 [2] of 460 nM and an IC50 [3] of 703 nM. For the same compound, the IC50 [4] was 313 nM.

Compound `Cc1cc(Nc2ncnc3ccc(-c4cccc(NCCS(C)(=O)=O)c4)cc23)ccc1Oc1cc2nncn2cn1` [Embodiment 115] has an IC50 [1] of 5.91 nM, an IC50 [2] of 58.6 nM and an IC50 [3] of 75.9 nM. It also gave an IC50 [4] of 84 nM.

With `CCC1COC(Nc2ccc3ncnc(Nc4ccc(Oc5cc6nncn6cn5)c(C)c4)c3c2)=N1` (stereo not shown) [Embodiment 129, N^4-(4-([1,2,4]triazolo[4,3-c]pyrimidin-7-yloxy)-3-methylphenyl)-N^6-(4-ethyl-4,5-dihydrooxazol-2-yl)quinazolin-4,6-diamine] the IC50 [1] was 4.4 nM, the IC50 [2] was 189 nM and the IC50 [3] was 56.9 nM. For the same compound, the IC50 [4] was 121 nM.

`CN1CCC[C@@H]1/C=C/C(=O)Nc1ccc2ncnc(Nc3ccc(Oc4cc5nncn5cn4)c(Cl)c3)c2c1` [Embodiment 98, (R,E)-N-(4-((4-([1,2,4]triazolo[4,3-c]pyrimidin-7-yloxy)-3-chlorophenyl)amino)quinazolin-6-yl)-3-(1-methylpyrrolidin-2-yl)acrylamide] was tested, and the IC50 [1] was 1.78 nM, the IC50 [2] was 3 nM and the IC50 [3] was 1.6 nM. For the same compound, the IC50 [4] was 2.5 nM.

`Cc1cc(Nc2ncnc3ccc(-c4cc(CN5CCS(=O)(=O)CC5)co4)cc23)ccc1Oc1cc2nncn2cn1` [Embodiment 64] showed an IC50 [1] of 1.6 nM, an IC50 [2] of 27.6 nM and an IC50 [3] of 29 nM. The IC50 [4] was 42.7 nM.

With `Cc1cc(Nc2ncnc3ccc(NC4=N[C@H](C)CO4)cc23)ccc1Oc1cc2nncn2cn1` [Embodiment 7, (R)—N^4-(4-([1,2,4]triazolo[4,3-c]pyrimidin-7-yloxy)-3-methylphenyl)-N^6-(4-methyl-4,5-dihydrooxazol-2-yl)quinazoline-4,6-diamine] the IC50 [1] was 8.1 nM, the IC50 [2] was 45 nM and the IC50 [3] was 164 nM. For the same compound, the IC50 [4] was 71 nM.

With `Cc1cc(Nc2ncnc3ccc(NC4=NCC5(CCN(C(=O)OC(C)(C)C)CC5)O4)cc23)ccc1Oc1cc2nncn2cn1` [Embodiment 25, tert-butyl 2-((4-((4-([1,2,4]triazolo[4,3-c]pyrimidin-7-yloxy)-3-methylphenyl)amino)quinazolin-6-yl)amino)-1-oxa-3,8-diazaspiro[4.5]dec-2-en-8-carboxylate] the IC50 [1] was 53.3 nM, the IC50 [2] was 984 nM and the IC50 [3] was 499 nM. The IC50 [4] was 464 nM.

For `Cc1cc(Nc2ncnc3ccc(NC(=O)C4CC(Br)=NO4)cc23)ccc1Oc1cc2nncn2cn1` (stereo not shown) [Embodiment 58, N-(4-((4-([1,2,4]triazolo[4,3-c]pyrimidin-7-yloxy)-3-methylphenyl)amino)quinazolin-6-yl)-3-bromo-4,5-dihydroisoxazol-5-carboxamide], the IC50 [1] was 5.4 nM, the IC50 [2] was 352 nM and the IC50 [3] was 206 nM. For the same compound, the IC50 [4] was 192 nM.

In the case of `CCNC(=O)NC/C=C/c1ccc2ncnc(Nc3ccc(Oc4cc5nncn5cn4)c(C)c3)c2c1` [Embodiment 49, (E)-1-(3-(4-((4-([1,2,4]triazolo[4,3-c]pyrimidin-7-yloxy)-3-methylphenyl)amino)quinazolin-6-yl)allyl)-3-ethylurea], the IC50 [1] was 1.85 nM, the IC50 [2] was 33.4 nM and the IC50 [3] was 28.1 nM. It also gave an IC50 [4] of 271 nM.

Compound `Cc1cc(Nc2ncnc3ccc(NC(=O)/C=C/[C@@H]4CCCN4)cc23)ccc1Oc1cc2nncn2cn1` [Embodiment 96, (S,E)-N-(4-((4-([1,2,4]triazolo[4,3-c]pyrimidin-7-yloxy)-3-methylphenyl)amino)quinazolin-6-yl)-3-(pyrrolidin-2-yl)acrylamide] has an IC50 [1] of 3.43 nM, an IC50 [2] of 55.9 nM and an IC50 [3] of 3.79 nM. The IC50 [4] was 93.5 nM.
